From US20100285145A1, “GPR 119 MODULATORS” (PFIZER INC, priority 2009, published 2010)
Several values for one entry are separate records, joined by “and”; a condition that tells them apart may be missing. Identical values can stand only once.

The compounds below were run against T1, human GPR119 (Homo sapiens, UniProt Q8TDV5) (assay: GPR119 radioligand binding assay ([3H]-Compound A or B, membranes of HEK 293FT cells expressing hGPR119)). Settings: calculated from IC50 with Cheng-Prusoff; each line a separate determination.
T1 sequence (Q8TDV5 1-335): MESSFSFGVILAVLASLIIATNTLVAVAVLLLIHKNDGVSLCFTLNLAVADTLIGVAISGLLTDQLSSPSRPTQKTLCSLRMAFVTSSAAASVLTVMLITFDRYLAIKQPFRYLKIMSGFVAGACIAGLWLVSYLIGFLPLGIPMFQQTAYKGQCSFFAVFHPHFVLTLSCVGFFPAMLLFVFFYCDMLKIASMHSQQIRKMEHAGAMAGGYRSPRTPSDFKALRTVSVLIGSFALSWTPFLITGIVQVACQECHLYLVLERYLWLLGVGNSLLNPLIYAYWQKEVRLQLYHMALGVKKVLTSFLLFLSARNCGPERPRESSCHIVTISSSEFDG
Set-up: host or cells: HEK293-CRE beta-lactamase
Experimental: HEK 293FT cells (Invitrogen, Carlsbad, Calif.) were grown in a shake flask in 293Freestyle medium (Invitrogen) supplemented with 50 microg/mL neomycin and 10 mM HEPES (37C, 8% carbon dioxide, shaking). The cells were centrifuged gently (approximately 500×g, 10 minutes) and the pellet resuspended in a mixture of Dulbecco's PBS (minus Mg++/−Ca++) supplemented with 18% fetal bovine serum (Sigma Aldrich) and P1 virus such that the multiplicity of infection (MOI) was 10 and the final cell density was 1.3×10^6/mL (total volume 2.5 liters). The cells were transferred to a 5 liter Wave Bioreactor Wavebag (Wave Technologies, Mass.) and incubated for 4 hours at 27 degrees Celsius (17 rocks/min, 7 degrees platform angle); at the end of the incubation period, an equal volume (2.5 liters) of 293Freestyle medium supplemented with 30 mM sodium butyrate (Sigma Aldrich) was added (final concentration=15 mM), and the cells were grown for 20 hours (37 degrees Celsius, 8% CO2 [0.2 liters/min}, 25 rocks/minute, 7 degrees platform angle). Cells were harvested via centrifugation (3,000×g, 10 minutes), washed once on DPBS (minus Ca++/Mg++), resuspended in 0.25M sucrose, 25 mM HEPES, 0.5 mM EDTA, pH 7.4 and frozen at −80 degrees Celsius.
The frozen cells were thawed on ice and centrifuged at 700×g (1400 rpm) for 10 minutes at 4 degrees Celsius. The cell pellet was resuspended in 20 mL phosphate-buffered saline, and centrifuged at 1400 rpm for 10 minutes. The cell pellet was then resuspended in homogenization buffer (10 mM HEPES (Gibco #15630), pH 7.5, 1 mM EDTA (BioSolutions, #BIO260-15), 1 mM EGTA (Sigma, #E-4378), 0.01 mg/mL benzamidine (Sigma #B 6506), 0.01 mg/mL bacitracin (Sigma #B 0125), 0.005 mg/mL leupeptin (Sigma #L 8511), 0.005 mg/mL aprotinin (Sigma #A 1153)) and incubated on ice for 10 minutes. Cells were then lysed with 15 gentle strokes of a tight-fitting glass Dounce homogenizer. The homogenate was centrifuged at 1000×g (2200 rpm) for 10 minutes at 4 degrees Celsius. The supernatant was transferred into fresh centrifuge tubes on ice. The cell pellet was resuspended in homogenization buffer, and centrifuged again at 1000×g (2200 rpm) for 10 minutes at 4 degrees Celsius after which the supernatant was removed and the pellet resuspended in homogenization buffer. This process was repeated a third time, after which the supernatants were combined, Benzonase (Novagen # 71206) and MgCl2 (Fluka #63020) were added to final concentrations of 1 U/mL and 6 mM, respectively, and incubated on ice for one hour. The solution was then centrifuged at 25,000×g (15000 rpm) for 20 minutes at 4 degrees Celsius, the supernatant was discarded, and the pellet was resuspended in fresh homogenization buffer (minus Benzonase and MgCl2). After repeating the 25,000×g centrifugation step, the final membrane pellet was resuspended in homogenization buffer and frozen at −80 degrees Celsius. The protein concentration was determined using the Pierce BCA protein assay kit (Pierce reagents A #23223 and B #23224).
Test compounds were serially diluted in 100% DMSO (J. T. Baker #922401). 2 microL of each dilution was added to appropriate wells of a 96-well plate (each concentration in triplicate). Unlabeled Compound A (or Compound B), at a final concentration of 10 microM, was used to determine non-specific binding. [^3H]-Compound A (or [^3H]-Compound B) was diluted in binding buffer (50 mM Tris-HCl, pH 7.5, (Sigma #T7443), 10 mM MgCl2 (Fluka 63020), 1 mM EDTA (BioSolutions #BIO260-15), 0.15% bovine serum albumin (Sigma #A7511), 0.01 mg/mL benzamidine (Sigma #B 6506), 0.01 mg/mL bacitracin (Sigma #B 0125), 0.005 mg/mL leupeptin (Sigma #L 8511), 0.005 mg/mL aprotinin (Sigma #A 1153)) to a concentration of 60 nM, and 100 microL added to all wells of 96-well plate (Nalge Nunc # 267245). […]

Row | Ki | SMILES
1 | 73.8 nM | Cc1c(O[C@@H]2[C@@H]3COC[C@H]2CN(C(=O)OC(C)C)C3)ncnc1N1CCc2ncccc21 [Example 29, Isopropyl (9-syn)-9-{[6-(2,3-dihydro-1H-pyrrolo[3,2-b]pyridin-1-yl)-5-methylpyrimidin-4-yl]oxy}-3-oxa-7-azabicyclo[3.3.1]nonane-7-carboxylate]
2 | 39 nM and 34.7 nM | Cc1c(O[C@H]2[C@@H]3COC[C@H]2CN(C(=O)OC2(C)CC2)C3)ncnc1N1CCc2ncccc21 [Example 25, 1-Methylcyclopropyl (9-anti)-9-{[6-(2,3-dihydro-1H-pyrrolo[3,2-b]pyridin-1-yl)-5-methylpyrimidin-4-yl]oxy}-3-oxa-7-azabicyclo[3.3.1]nonane-7-carboxylate]
3 | 2 nM and 5.04 nM and 2.43 nM and 4.23 nM and 1.7 nM and 5.67 nM and 13.8 nM and 11.9 nM and 2.45 nM and 6.9 nM | Cc1c(O[C@H]2CCN(C(=O)OC3(C)CC3)C[C@H]2F)ncnc1N1CCc2ncccc21 [Example 17, 1-Methylcyclopropyl (3R,4S)-4-{[6-(2,3-dihydro-1H-pyrrolo[3,2-b]pyridin-1-yl)-5-methylpyrimidin-4-yl]oxy}-3-fluoropiperidine-1-carboxylate]
4 | 55.3 nM and 16 nM and 91.1 nM and 23.8 nM | Cc1c(OC2CCN(C(=O)OC(C)C)CC2)ncnc1N1CCc2ncccc21 [Example 13, Isopropyl 4-{[6-(2,3-dihydro-1H-pyrrolo[3,2-b]pyridin-1-yl)-5-methylpyrimidin-4-yl]oxy}-piperidine-1-carboxylate]
5 | 58.8 nM and 45.2 nM | CC(C)OC(=O)N1CCC(Oc2cc(N3CCc4cc(C(=O)N(C)C)ccc43)ncn2)CC1 [Example 9, 4-[6-(5-Dimethylcarbamoyl-2,3-dihydroindol-1-yl)-pyrimidin-4-yloxy]-piperidine-1-carboxylic acid isopropyl ester]
6 | 1.48 nM and 2.12 nM | Cc1c(O[C@H]2CCN(C(=O)OC(C)(C)C)C[C@H]2F)ncnc1N1CCc2ncccc21 (racemic) [Example 16, tert-Butyl (3R,4S)-4-{[6-(2,3-dihydro-1H-pyrrolo[3,2-b]pyridin-1-yl)-5-methylpyrimidin-4-yl]oxy}-3-fluoropiperidine-1-carboxylate (racemic)]
7 | 20.8 nM and 13.8 nM | Cc1c(O[C@H]2[C@@H]3COC[C@H]2CN(C(=O)OC2(C)CCC2)C3)ncnc1N1CCc2ncccc21 [Example 27, 1-Methylcyclobutyl (9-anti)-9-{[6-(2,3-dihydro-1H-pyrrolo[3,2-b]pyridin-1-yl)-5-methylpyrimidin-4-yl]oxy}-3-oxa-7-azabicyclo[3.3.1]nonane-7-carboxylate]
8 | 66.6 nM and 79.3 nM and 53 nM and 96.4 nM | Cc1c(O[C@H]2[C@@H]3COC[C@H]2CN(C(=O)OC(C)C)C3)ncnc1N1CCc2ncccc21 [Example 22, Isopropyl (9-anti)-9-{[6-(2,3-dihydro-1H-pyrrolo[3,2-b]pyridin-1-yl)-5-methylpyrimidin-4-yl]oxy}-3-oxa-7-azabicyclo[3.3.1]nonane-7-carboxylate]
9 | 232 nM | CC(C)OC(=O)N1CCC(Oc2cc(N3CCc4cc(C#N)ccc43)ncn2)CC1 [Example 10, Isopropyl 4-{[6-(5-cyano-2,3-dihydro-1H-indol-1-yl)pyrimidin-4-yl]oxy}piperidine-1-carboxylate]
10 | 273 nM and 338 nM | Cc1c(OC2CCN(C(=O)OC(C)C)CC2)ncnc1N1CCc2cc(S(C)(=O)=O)ccc21 [Example 8, Isopropyl 4-({5-methyl-6-[5-(methylsulfonyl)-2,3-dihydro-1H-indol-1-yl]pyrimidin-4-yl}oxy)piperidine-1-carboxylate]
11 | 1.87 nM and 5.02 nM | CC(C)OC(=O)N1CCC(Oc2ncnc(N3CCc4cc(S(C)(=O)=O)ccc43)c2C#N)CC1 [Example 6, Isopropyl 4-({5-cyano-6-[5-(methylsulfonyl)-2,3-dihydro-1H-indol-1-yl]pyrimidin-4-yl}oxy)piperidine-1-carboxylate]
12 | 219 nM and 35.5 nM | CC(C)OC(=O)N1C[C@H]2COC[C@@H](C1)[C@H]2Oc1cc(N2CCc3cc(S(C)(=O)=O)ccc32)ncn1 [Example 1, Isopropyl 9-anti-({6-[5-(methylsulfonyl)-2,3-dihydro-1H-indol-1-yl]pyrimidin-4-yl}oxy)-3-oxa-7-azabicyclo[3.3.1]nonane-7-carboxylate]
13 | 6100 nM and 1350 nM and 2910 nM | CC(C)OC(=O)N1CCC(Oc2cc(N3CCc4ncccc43)ncn2)CC1 [Example 12, Isopropyl 4-{[6-(2,3-dihydro-1H-pyrrolo[3,2-b]pyridin-1-yl)pyrimidin-4-yl]oxy}piperidine-1-carboxylate]
14 | 72.8 nM | CC(C)OC(=O)N1CCC(Oc2cc(N3CCc4cc(S(=O)(=O)CCO)ccc43)ncn2)CC1 [Example 11, Isopropyl 4-[(6-{5-[(2-hydroxyethyl)sulfonyl]-2,3-dihydro-1H-indol-1-yl}pyrimidin-4-yl)oxy]piperidine-1-carboxylate]
15 | 40.5 nM and 22.2 nM | CCC1(OC(=O)N2C[C@H]3COC[C@@H](C2)[C@H]3Oc2ncnc(N3CCc4ncccc43)c2C)CC1 [Example 26, 1-Ethylcyclopropyl (9-anti)-9-{[6-(2,3-dihydro-1H-pyrrolo-[3,2-b]pyridin-1-yl)-5-methylpyrimidin-4-yl]oxy}-3-oxa-7-azabicyclo[3.3.1]nonane-7-carboxylate]
16 | 1.72 nM and 6.77 nM and 1.6 nM | CC(C)(C)OC(=O)N1CCC(Oc2cc(N3CCc4cc(S(C)(=O)=O)ccc43)ncn2)C(F)C1 (racemic) [Example 15, tert-Butyl 3-fluoro-4-({6-[5-(methylsulfonyl)-2,3-dihydro-1H-indol-1-yl]pyrimidin-4-yl}oxy)piperidine-1-carboxylate]
